Results: paper PMC5503199 (Molecular microbiology, 2009)
Like-named read-outs stand apart in the source and are kept apart here.

Key:
CbcWV with BetXB728a = format: cell-based, Pseudomonas syringae pv. syringae; conditions: MKH13; pNcbcWV, pT-B3758; SBP BetXB728a; substrate 10 μM; single replication
CbcXWV from B728a = format: cell-based, Pseudomonas syringae pv. syringae; conditions: Acella, pET-cbcB728a; 1 mM IPTG; substrate 1 mM; single colony
[1] = test system: S. meliloti ChoXWV transporter; format: cell-based, Sinorhizobium meliloti
[2] = test system: cbcXWV from DC3000 in QAC transporter-deficient BT strain; format: cell-based, Pseudomonas syringae pv. tomato; conditions: BT(pCbcDC3000), unlabelled competitor 0.5 mM, 10 min
BetX with CbcWV = molecular target: T1, BetX with CbcWV (Pseudomonas aeruginosa, UniProt Q9HZ04); assay: Competitive uptake, MKH13 expressing cbcWV and betX; format: cell-based; conditions: pNcbcWV, pT-PA3236, SBP BetX, [^14C]betaine 10 μM, competitor 1 mM
T1 sequence (Q9HZ04 26-285): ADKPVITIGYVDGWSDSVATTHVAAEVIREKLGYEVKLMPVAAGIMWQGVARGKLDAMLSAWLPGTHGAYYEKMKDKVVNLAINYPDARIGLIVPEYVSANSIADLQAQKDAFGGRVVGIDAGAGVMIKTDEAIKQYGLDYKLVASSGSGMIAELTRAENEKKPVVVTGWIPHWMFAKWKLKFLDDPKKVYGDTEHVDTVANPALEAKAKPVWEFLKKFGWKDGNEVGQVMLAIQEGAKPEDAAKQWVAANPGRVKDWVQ
T1 sequence (Q9HTI7 1-279 partner): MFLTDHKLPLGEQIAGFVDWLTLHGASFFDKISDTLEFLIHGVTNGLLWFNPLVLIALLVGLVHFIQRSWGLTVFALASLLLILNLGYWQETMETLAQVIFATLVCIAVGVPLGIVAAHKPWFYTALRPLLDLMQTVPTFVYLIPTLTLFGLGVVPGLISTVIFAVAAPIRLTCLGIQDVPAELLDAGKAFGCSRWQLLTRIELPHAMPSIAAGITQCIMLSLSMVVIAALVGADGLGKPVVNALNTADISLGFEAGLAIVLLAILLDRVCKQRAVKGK
T1 sequence (Q9HTI8 1-392 partner): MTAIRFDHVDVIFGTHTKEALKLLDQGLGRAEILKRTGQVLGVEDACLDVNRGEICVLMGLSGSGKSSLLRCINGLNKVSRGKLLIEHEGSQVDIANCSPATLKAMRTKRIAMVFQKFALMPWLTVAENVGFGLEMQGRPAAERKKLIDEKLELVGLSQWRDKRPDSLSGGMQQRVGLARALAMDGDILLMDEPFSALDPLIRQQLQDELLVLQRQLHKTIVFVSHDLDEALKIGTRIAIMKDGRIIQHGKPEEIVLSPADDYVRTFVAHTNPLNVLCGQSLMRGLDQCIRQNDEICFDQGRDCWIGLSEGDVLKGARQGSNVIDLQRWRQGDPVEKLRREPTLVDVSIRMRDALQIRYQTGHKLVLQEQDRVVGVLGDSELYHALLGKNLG

[3] = test system: S. meliloti Cho transporter ChoXWV; format: cell-based, Sinorhizobium meliloti; conditions: MKH13; pNchoXWV, Plasmid 2 None; SBP ChoX; substrate 10 μM; single replication
CbcWV with CaiXPAO1 = format: cell-based, Pseudomonas aeruginosa; conditions: MKH13; pNcbcWV, pT-PA5388; SBP CaiXPAO1; substrate 10 μM; single replication
[4] = test system: complete Cbc transporter CbcXWV (PAO1); format: cell-based, Pseudomonas aeruginosa; conditions: for choline uptake by CbcXWV: BT strain derivatives; for Total uptake: pNcbcXWV
[5] = test system: Cbc core transporter CbcWV; format: cell-based, Pseudomonas aeruginosa; conditions: MKH13, pNcbcWV, SBP None, substrate 10 μM, single replication
[6] = test system: cbcXWV from B728a in QAC transporter-deficient BT strain; format: cell-based, Pseudomonas syringae pv. syringae; conditions: BT(pCbcB728a), unlabelled competitor 0.5 mM, 10 min
[7] = test system: Cbc core transporter CbcWV (PAO1) with chromosomally encoded SBPs; format: cell-based, Pseudomonas aeruginosa; conditions: pNcbcWV
CbcWV with BetXPAO1 = format: cell-based, Pseudomonas aeruginosa; conditions: MKH13; pNcbcWV, pT-PA3236; SBP BetXPAO1; substrate 10 μM; single replication
[8] = test system: cbcXWV from PAO1 in QAC transporter-deficient BT strain; format: cell-based, Pseudomonas aeruginosa; conditions: BT(pCbcPAO1), unlabelled competitor 0.5 mM, 10 min
[9] = test system: CbcXWV from P. aeruginosa PAO1; format: cell-based, Pseudomonas aeruginosa; conditions: MKH13, pCbcPAO1; radiolabelled substrate 1 mM; mean (SE), n = 10
CaiX with CbcWV = format: cell-based, Pseudomonas aeruginosa; conditions: MKH13; pNcbcWV, pT-PA5388; SBP CaiX; [^14C]carnitine 10 μM; competitor 1 mM
[10] = host BT0028Ko, substrate 10 μM, mean (SE), n = 2
[11] = host BT0028Ko, substrate 1 mM, mean (SE), n = 2
[12] = host BT2916Ko, substrate 10 μM, single replication
[13] = host BT2916Ko, substrate 1 mM, single replication
[14] = host BT3758Ko, substrate 10 μM, mean (SE), n = 3
[15] = host BT3758Ko, substrate 1 mM, mean (SE), n = 3

Structure (SMILES): C[N+](C)(C)CCO [Choline, choline]
- Total uptake (CbcWV with BetXB728a): 0 nmol (mg protein)^−1
- Total uptake (CbcXWV from B728a): 19.2 nmol (mg protein)^−1
- Total uptake ([1]; pNchoXW, host BT0028Ko, substrate 10 μM, mean (SE), n = 2): 7.8 (0.07) nmol (mg protein)^−1
- Total uptake ([1]; pNchoXW, host BT0028Ko, substrate 1 mM, mean (SE), n = 2): 8.5 (1.4) nmol (mg protein)^−1
- Total uptake ([1]; pNchoXW, host BT3758Ko, substrate 10 μM, mean (SE), n = 3): 8.6 (1.28) nmol (mg protein)^−1
- Total uptake ([1]; pNchoXW, host BT3758Ko, substrate 1 mM, mean (SE), n = 3): 7.4 (0.8) nmol (mg protein)^−1
- Total uptake ([1]; pNchoXWV, host BT2916Ko, substrate 10 μM, single replication): 6.5 nmol (mg protein)^−1
- Total uptake ([1]; pNchoXWV, host BT2916Ko, substrate 1 mM, single replication): 6.1 nmol (mg protein)^−1
- % inhibition of uptake of [^14C]substrate ([2]; [^14C]betaine 5 μM): −6%
- % inhibition of uptake of [^14C]substrate ([2]; [^14C]carnitine 5 μM): 81%
- % inhibition of uptake of [^14C]substrate ([2]; [^14C]choline 5 μM): 89%
- % inhibition of uptake of substrate by unlabelled competitor (BetX with CbcWV): −8%
- Total uptake [3]: 4.7 nmol (mg protein)^−1
- Total uptake (CbcWV with CaiXPAO1): 0 nmol (mg protein)^−1
- choline uptake by CbcXWV ([4]; choline 10 μM (summary of Table 4)): 16 to 18 nmol (mg protein)^−1
- choline uptake by CbcXWV ([4]; choline 1 mM (summary of Table 4)): 562–648 nmol (mg protein)^−1
- share of choline uptake mediated by CbcX ([4]; at low (10 μM) and high (1 mM) [^14C]choline concentrations, BT derivatives): approximately 99%
- Total uptake [4, 10]: 18.2 (0.36) nmol (mg protein)^−1
- Total uptake [4, 11]: 562 (6.8) nmol (mg protein)^−1
- Total uptake [4, 12]: 16.2 nmol (mg protein)^−1
- Total uptake [4, 13]: 644 nmol (mg protein)^−1
- Total uptake [4, 14]: 16.4 (0.18) nmol (mg protein)^−1
- Total uptake [4, 15]: 648 (27.5) nmol (mg protein)^−1
- Total uptake ([5]; Plasmid 2 None): 0 nmol (mg protein)^−1
- Total uptake ([5]; pTOK2T): 0 nmol (mg protein)^−1
- % inhibition of uptake of [^14C]substrate ([6]; [^14C]betaine 5 μM): 3%
- % inhibition of uptake of [^14C]substrate ([6]; [^14C]carnitine 5 μM): 75%
- % inhibition of uptake of [^14C]substrate ([6]; [^14C]choline 5 μM): 93%
- Total uptake [7, 10]: 0.11 (0.05) nmol (mg protein)^−1
- Total uptake [7, 11]: 8.9 (1.4) nmol (mg protein)^−1
- Total uptake [7, 12]: 0.15 nmol (mg protein)^−1
- Total uptake [7, 13]: 8.6 nmol (mg protein)^−1
- Total uptake [7, 14]: 0.15 (0.05) nmol (mg protein)^−1
- Total uptake [7, 15]: 7.1 (0.6) nmol (mg protein)^−1
- Total uptake (CbcWV with BetXPAO1): 0 nmol (mg protein)^−1
- % inhibition of uptake of [^14C]substrate ([8]; [^14C]betaine 5 μM): −6%
- % inhibition of uptake of [^14C]substrate ([8]; [^14C]carnitine 5 μM): 77%
- % inhibition of uptake of [^14C]substrate ([8]; [^14C]choline 5 μM): 84%
- Total uptake [9]: 12.1 (1.1) nmol (mg protein)^−1
- % inhibition of uptake of substrate by unlabelled competitor (CaiX with CbcWV): 5%
